For nine molecules, TGI results are on record in PubChem BioAssay (NCI).

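All cell lines were grown in 96-well plates and treated with compound for 48 hours. TGI is the concentration that stops growth completely.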

Among the test systems are RXF-631 renal; M19-MEL melanoma; DMS 273 small cell lung; LXFL 529 NSCLC; SNB-78 CNS; XF 498 CNS; SN12K1 renal; P388 leukemia; P388/ADR leukemia.
Experiment in all cases: NCI tumour cell line growth inhibition, 48 h

Take `Cc1cc(OCC(O)CO)ccc1Cl` (configuration not stated): the TGI with RXF-631 renal, in the assay with M19-MEL melanoma, in the assay with DMS 273 small cell lung and in the assay with LXFL 529 NSCLC was more than 100 µM in each case.

Consider `CSc1nc(-c2ccccc2)nc(=[N+]2CCOCC2)s1`, for which the TGI in the assay with M19-MEL melanoma, in the assay with SNB-78 CNS, with DMS 273 small cell lung and in the assay on LXFL 529 NSCLC was more than 100 µM each time.

For the molecule `CC(C)(C)CC(C)(C)NCC(O)COc1ccc(C(C)(C)c2ccc(OCC(O)CNC(C)(C)CC(C)(C)C)cc2)cc1` (configuration not stated), the TGI in the assay with XF 498 CNS amounted to 3.02 µM; in the assay on M19-MEL melanoma it was 2.88 µM; in the assay with SNB-78 CNS it was 3.63 µM; in the assay with DMS 273 small cell lung, 2.28 µM; in the assay with LXFL 529 NSCLC, 1.3 µM.

As for `Nc1ncc2c(n1)-c1ccccc1OC2`, the TGI in the assay with XF 498 CNS, in the assay with M19-MEL melanoma, in the assay on SNB-78 CNS, in the assay with DMS 273 small cell lung, with SN12K1 renal and in the assay on P388 leukemia was more than 100 µM in each case.

For the molecule `COc1ccc(C2=NN(c3nsc4ccccc34)C(=O)CC2)cc1`, the TGI in the assay on M19-MEL melanoma, with SNB-78 CNS, in the assay with DMS 273 small cell lung and in the assay with LXFL 529 NSCLC was more than 100 µM throughout.

`O=[N+]([O-])c1ccc(Nc2cccc3c2[nH]c2c(-c4ccccc4)nccc23)c([N+](=O)[O-])c1`: the TGI is more than 100 µM in the assay with P388/ADR leukemia; more than 100 µM in the assay with XF 498 CNS; more than 100 µM in the assay on M19-MEL melanoma; more than 100 µM in the assay on SNB-78 CNS; more than 100 µM with DMS 273 small cell lung; more than 69.2 µM in the assay with P388 leukemia.

Regarding `Cc1ccc(S(=O)(=O)N/N=C\c2c3ccccc3[n+](C)c3ccccc23)cc1`, the TGI is more than 100 µM in the assay on M19-MEL melanoma, more than 100 µM with SNB-78 CNS and 64.7 µM with DMS 273 small cell lung.

As for `O=S(=O)(O)c1cc(N=[N+]([O-])c2ccc(N=Nc3ccccc3)cc2S(=O)(=O)O)ccc1/C=C/c1ccc(N=[N+]([O-])c2ccc(N=Nc3ccccc3)cc2S(=O)(=O)O)cc1S(=O)(=O)O`, the TGI is more than 100 µM in the assay with XF 498 CNS; more than 100 µM in the assay with M19-MEL melanoma; more than 100 µM in the assay on SNB-78 CNS; more than 100 µM in the assay with DMS 273 small cell lung; more than 31.6 µM in the assay on SN12K1 renal; more than 100 µM in the assay on P388 leukemia.

As for `Cc1ccc([N+]2=NC(c3ccccc3)=NN(c3ccccc3)C2)cc1`, the TGI in the assay on XF 498 CNS, with M19-MEL melanoma, in the assay with DMS 273 small cell lung and in the assay on LXFL 529 NSCLC was more than 100 µM in each case.
